In patent publication US9387213B2, “Small molecules inhibiting oncoprotein Myc” (Health Research, Inc., priority 2012, dated 2016):

Experiments:
SK-Mel-103 xenografts = assay: SK-Mel-103 xenograft efficacy study CBL2.5-01-Ms-2, N77A7 in Captisol; type: in vivo, athymic nude mice
Procedure: FIG. 9 illustrates the effect of N77A7 on survival of SK-Mel-103 tumor-bearing mice. […] When at least one tumor on the majority of mice reached ˜50 mm^3, mice were randomly divided into treatment groups. Starting on Day 1 of treatment, mice were treated daily by ip injection of either 50 mg/kg N77A7 or the equivalent amount of Captisol vehicle. Mice were followed until tumors reached 1000 mm^3 or tumors ulcerated or 28 days of treatment, whichever came first. The proportion of surviving mice is depicted in the graph. The survival of N77A7 and vehicle control-treated mice was compared using the Log Rank test. p-value<0.05 indicates significance.
FIG. 10 illustrates the effect of Captisol and N77A7 on mouse weight. (A) Mean change in body weight as determined by calculating the % starting weight, which is the weight of a mouse on Day X divided by the weight of the same mouse on Day 1 and multiplied by 100. […] (C)-(D) Changes in mouse weight for individual mice in each treatment group calculated as described in (A).
FIG. 11 illustrates the effect of 50 mg/kg N77A7 on tumor growth. (A) Athymic nude mice were inoculated with 1×10^6 SK-Mel-103 tumor cells in each rear flank. When at least one tumor on a mouse was ˜50 mg for the majority of mice, treatment commenced. Mice were treated once daily ip with 50 mg/kg N77A7 or an equivalent amount of vehicle control (i.e., Captisol). Tumors were measured by digital caliper on Day 1 and then twice per week thereafter. Tumor measurements were made blind to the treatment each mouse received. Data is presented as the mean tumor volume on each measurement day. Comparison of tumor volume between treatment groups was made using unpaired t-tests. P value <0.05 is significant. (B) Same as (A) except data is presented as mean fold tumor growth, which was calculated by dividing the mean tumor volume on Day X by that of the same tumor on Day 1.
FIG. 12 illustrates the effect N77A7 on tumor doubling time and the time to reach 1000 mm^3 Growth curves for each tumor within each treatment group were plotted (tumor volume vs days from start of treatment). Regression analysis using the exponential trendline in Excel was used to generate an equation for each curve. From the equation, the tumor doubling time (A) and the time to reach the experimental endpoint of 1000 mm^3 was calculated. Error bars represent the standard error of the mean and p values were obtained using unpaired, two-sided t-tests.
Animal study protocol CBL2.5-01-Ms-2. N77A7 formulated in Captisol was prepared. Both N77A7 and Captisol vehicle were prepared weekly according to the needs of the study. SK-Mel-103 melanoma cells (1×10^6 cells/inoculation were inoculated into each rear flank of 20 athymic nude (7.5 week old males) on Sep. 11, 2009. Prior to commencement of treatment, mice were randomly assigned to treatment groups with 2 of 4 mice per cage assigned to the Captisol vehicle control group and the other 2 mice to the 50 mg/kg N77A7 group. When at least one tumor per mouse for the majority of mice reached ˜50 mm^3 in tumor volume, treatment commenced. The first day of treatment (Day 1) was Sep. 21, 2009. Administration of N77A7 and vehicle control was performed daily by ip administration of 2.5 mg/ml solution of N77A7 or equivalent amount of vehicle control at 500 μl/25 g mouse body weight. Mouse body weight measurements were performed prior to commencement of treatment and Mondays-Wednesdays-Fridays thereafter. Administration volumes were adjusted during the course of the study based on the latest weight measurements. Treatments were administered. Tumor measurements were performed without prior knowledge of which treatment group each mouse belonged (i.e., blinded to treatment groups). When at least one tumor of a mouse reached 1000 mm^3 or tumor ulceration was evident, mice were euthanized according to the approved IACUC protocol (CBL 1096M). The experiment was completed on Day 18 (Oct. 8, 2009). […]

in vitro = conditions: microsomes, pH 7.4; for Percent Remaining 0 min: 0 h; for Percent Remaining 0 min / Percent Remaining 10 min / Percent Remaining 20 min / Percent Remaining 30 min / Percent Remaining 60 min: 1 μM; for Percent Remaining 30 min: 0.5 h; for Percent Remaining 60 min: 1 h
Procedure: Additionally, several of the N77A7 analogs were subjected to the test for the metabolic stability in human and mouse liver microsomes. Briefly, 1 μM of test compound was incubated with microsomal protein (human liver microsomes: 0.5 mg/mL; mouse liver microsomes 0.5 mg/mL) and buffer (100 mM potassium phosphate, pH 7.4, 5 mM magnesium chloride). The positive control was 5 μM testosterone. The reaction was equilibrated at 37 C in a shaking water bath for 3 to 5 minutes. After equilibration, an aliquot was removed and combined with 50/50 acetonitrile/water containing 0.1% formic acid and internal standard to terminate the reaction. 1 mM NADPH was immediately added and the tube was returned to the water bath. Five sample time points were taken (0, 10, 20, 30, and 60 minutes). Aliquots were removed and combined with 50/50 acetonitrile/water containing 0.1% formic acid and internal standard to terminate the reaction. The samples were mixed for 10 minutes and centrifuged. The supernatant from each sample was diluted (if necessary) and then transferred to vials for analysis by LC-MS/MS for the test compound and internal standard without calibration standards. The percent remaining at each time point was determined by the test compound's peak area response ratio versus the 0 minute sample.

[1] = tested on: SK-Mel-103 melanoma cells
Procedure: One week following inoculation, treatment with 50 mg/kg N77A7 or Captisol vehicle control commenced. Treatment occurred daily by ip administration. Tumors were measured biweekly. Tumor volume was calculated using the formula tumor volume=L×W^2/2, where W=shortest dimension.
Our Myc inhibitors were tested for their effect against a panel of tumor cell lines, including neuroblastoma and melanoma that represent cell lines with aberrant N-myc and c-Myc expression, respectively. This panel of cell lines included the human neuroblastoma lines BE(2)C, IMR32 and NBL-WN (N-myc amplified), NBL-S (N-myc overexpression), SH-SY5Y (significant N- and c-Myc expression) and SH-EP (low levels c-Myc only) as well as two melanoma cell lines (#3 and #10-c-Myc overexpression) and normal melanocytes).

[2] = 50 mg/kg daily ip in Captisol, necropsy of several mice

SMILES: CCN(CC)c1ccc(/C=N/NC(=O)Cn2nnc(-c3ccccc3)n2)c(O)c1 [Compound N77A7]
- treated mice remaining in the study (survival) (SK-Mel-103 xenografts; 50 mg/kg daily ip in Captisol, after 14 days of treatment, all Captisol-treated mice euthanized, logrank P=0.0083): 5 of the 10
- compound precipitation at necropsy (SK-Mel-103 xenografts; [2]): no signs of compound precipitation within the abdominal cavity
- peritonitis at necropsy (SK-Mel-103 xenografts; [2]): no signs of peritonitis
- maximum tumor growth inhibition (SK-Mel-103 xenografts; 50 mg/kg daily ip in Captisol, versus Captisol vehicle): ~45%
- effect on mouse weight (SK-Mel-103 xenografts; 50 mg/kg daily ip, 14 consecutive days of treatment): did not cause any weight loss
- growth delay in reaching the study endpoint (1000 mm3) (SK-Mel-103 xenografts; 50 mg/kg daily ip, from regression of growth curves, p=0.0004): 5 days
- increase of doubling time for tumor growth (SK-Mel-103 xenografts; 50 mg/kg daily ip, from regression of growth curves, p=0.0157): 1 days
- starting tumors left in the study by Day 14 (SK-Mel-103 xenografts; 50 mg/kg daily ip, control <50% (8/18)): 80%
- Percent Remaining 0 min (in vitro; human): 100%
- Percent Remaining 10 min (in vitro; human): 87%
- Percent Remaining 20 min (in vitro; human): 30%
- Percent Remaining 30 min (in vitro; human): 1− Percent
- Percent Remaining 60 min (in vitro; human): <1.0%
- half-life at 1 µM (in vitro; human): 13.1 min
- microsomal CLint at 1 μM (in vitro; human): 110 µL/min/mg
- Percent Remaining 0 min (in vitro; mouse): 100%
- Percent Remaining 10 min (in vitro; mouse): 25%
- Percent Remaining 20 min (in vitro; mouse): 8.9%
- Percent Remaining 30 min (in vitro; mouse): 4.5%
- Percent Remaining 60 min (in vitro; mouse): <1.0%
- half-life at 1 µM (in vitro; mouse): 5.2 min
- microsomal CLint at 1 μM (in vitro; mouse): 270 µL/min/mg
- observable toxicity ([1]; mouse, in vivo): absence of any observable toxicity
- tumor growth ([1]; preliminary, ½ maximum tolerated dose, melanoma xenograft, FIG. 7): reduced tumor growth compared to the vehicle control
